Experimental data taken from patent US20100215632A1, “BIOMARKERS OF SIRTUIN ACTIVITY AND METHODS OF USE THEREOF” (Sirtris Pharmaceuticals, Inc., priority 2007, published 2010).

Legend:
FGF21 = FGF21 expression in liver of diet-induced obesity mice (microarray); assay type: in vivo, mouse; conditions: 3 day liver, oral once per day; resveratrol 1000 mg/kg, Compound 1 100 mg/kg
Description: (§1) As with Example 2, the diet-induced obesity (D10) model was used. 51 C57BL/6 mice are started on a 60% kcal high fat diet. Mice are weighed once a week for approximately 7 weeks on the high fat diet until the average body weight of the D10 mice is 40 grams. The study is divided into 3 groups of […] mice per group with mean average body weight/cage. Animals are dosed orally once per day as follows: Resveratrol at 1000 mg/kg in 2% HPMC/0.2% DOSS, Compound 1 at 100 mg/kg in 2% HPMC/0.2% DOSS and vehicle control animals 2% HPMC/0.2% DOSS. Concentration of compound is adjusted to proper dose according to the mean weight for each group weekly. Mice are typically dosed in the a.m. and are only dosed in the p.m. on days following a 16 hour fast. On day 3 of dosing, liver tissue is collected from the mice 1 hour post dose.
The liver is isolated as in Example 2. Total RNA from the liver sample is extracted with standard techniques (e.g. PureLink Micro-to-Midi Total RNA Purification System, Invitrogen cat. #12183-018).
Expression of multiple genes was determine by microarray as in Example 4.

liver = assay: Overall pattern of change in gene expression in 3 day liver of diet-induced obesity mice (gene chip); assay type: in vivo, mouse; conditions: 1000 mg/kg oral once per day
From the text: A mouse model of diet induced obesity was used to identify sirtuin biomarkers in mice following dosing with two chemically unrelated sirtuin activators. Obesity and type II diabetes are being intensively studied in animal models, particularly the mouse. One such model is commonly referred to as the diet-induced obesity (DIO) model. Typically, C57BL/6 males are fed a high fat diet for 8 to 12 weeks and, as a result, become obese, mildly to moderately hyperglycemic, and glucose intolerant. These mice are then used to study the genetic and physiological mechanisms of obesity and type II diabetes.
as §1, with “51” for “As with Example 2, the diet-induced obesity (D10) model was used. 51”, “DIO” for “D10”, “Each group is split up into 3 sub-groups for a 3, 16 and 42” for “On”, “collection time point.” for “3 of dosing, liver tissue is collected from the mice 1 hour post dose.”
Once dosing starts data collections are as follow. Day 3: collect tissues, blood and glucose from 6 mice from each group 1 hour post dose. Also take fed glucose from remaining groups. Day 13: Intraperitoneal glucose tolerance test (IPGTT). Day 16: collect tissues, blood and glucose from 6 mice from each group 1 hour post dose. Also take fed glucose from remaining groups. Day 28: Fasted glucose. […]
Total RNA isolated from either Example 2 above (mouse tissues following in vivo treatment with either Compound 1 or resveratrol) or Example 3 above (human WBC following ex vivo treatment with either Compound 2 or resveratrol) was analyzed using an Affymetrix GeneChip specific to either the mouse or human genome. […]

| SMILES | FGF21 mRNA levels versus control mice (FGF21) | activity of PGC1a and PPAR family members (liver) | activity of hepatic transcription factors involved in glucose homeostasis and the stress response pathway (liver) | inflammatory signaling (pattern of gene expression) (liver) |
| --- | --- | --- | --- | --- |
| O=C(Nc1ccccc1-c1cn2c(CN3CCNCC3)csc2n1)c1cnc2ccccc2n1 [Compound 1] | markedly higher | – | – | – |
| Oc1ccc(C=Cc2cc(O)cc(O)c2)cc1 [resveratrol, 3,5,4′-trihydroxystilbene] | markedly higher | increased activity of PGC1a and PPAR family members | increased activity of hepatic transcription factors | decreased inflammatory signaling |
